From the NIST ThermoML archive (doi:10.1016/j.fluid.2012.01.022)
Numbers after ± are expanded uncertainties.

Columns and labels:
[1] = Crystal; DTA
[2] = Molar enthalpy of transition or fusion; conditions: Crystal; DSC

Normal melting temperature [1]: 172.69 ± 1.1 °C
Molar enthalpy of transition or fusion [2]: 6.67 ± 0.191 kcal/mol
SMILES: NNC(=O)c1ccncc1 [isonicotinic acid hydrazide]
